Legend:
velvetleaf [1] = assay: Test Example 4: herbicidal effect by soil treatment (Table 19, symbol M); format: in vivo, velvetleaf (Abutilon theophrasti)
Summary of the method: (§1)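 Soil-surface application: an emulsion agent diluted with water to the predetermined dose is sprayed uniformly over seeds lying under roughly 1.5 cm of sterilized diluvial soil. Boxes stay in a greenhouse at 25° C. to 30° C. Three weeks later, each species is graded on previously defined criteria.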

persian speedwell [2] = assay: Test Example 4: herbicidal effect by soil treatment (Table 19, symbol R); format: in vivo, Persian speedwell (Veronica persica)
Summary of the method: as §1

persian speedwell [3] = assay: Test Example 5: herbicidal effect by foliage application, plastic box (Table 20, symbol R); format: in vivo, Persian speedwell (Veronica persica); settings: foliage application, three weeks after application
Summary of the method: (§2)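 Sow seeds spot-wise in sterilized diluvial soil; cover with ~1.5 cm soil. Grow 14 days in greenhouse, 25° C. to 30° C. Spray foliage with emulsion diluted to predetermined amount. Rate effect after 3 weeks.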

lambsquarters [4] = assay: Test Example 5: herbicidal effect by foliage application, plastic box (Table 20, symbol O); format: in vivo, lambsquarters (Chenopodium album); settings: foliage application, three weeks after application
Summary of the method: as §2

velvetleaf [5] = assay: Test Example 5: herbicidal effect by foliage application, plastic box (Table 20, symbol M); format: in vivo, velvetleaf (Abutilon theophrasti); settings: foliage application, three weeks after application
Summary of the method: as §2

Chinese sprangletop = assay: Test Example 3: herbicidal effect by foliage application, Wagner pot (Table 18, symbol D); format: in vivo, chinese sprangletop (Leptochloa chinensis)
Summary of the method: (§3)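 Plants were sown in alluvial soil held under 0.1–0.5 cm standing water and grown 14 days in a greenhouse at 25–30 °C. An emulsifiable formulation, water-diluted to the set dose, was then sprayed onto the foliage, and effects were scored three weeks later using previously defined criteria.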

southern crabgrass [6] = assay: Test Example 5: herbicidal effect by foliage application, plastic box (Table 20, symbol F); format: in vivo, southern crabgrass (Digitaria ciliaris); settings: foliage application, three weeks after application
Summary of the method: as §2

redroot pigweed [7] = assay: Test Example 5: herbicidal effect by foliage application, plastic box (Table 20, symbol N); format: in vivo, redroot pigweed (Amaranthus retroflexus); settings: foliage application, three weeks after application
Summary of the method: as §2

green foxtail [8] = assay: Test Example 4: herbicidal effect by soil treatment (Table 19, symbol G); format: in vivo, green foxtail (Setaria viridis)
Summary of the method: as §1

lambsquarters [9] = assay: Test Example 4: herbicidal effect by soil treatment (Table 19, symbol O); format: in vivo, lambsquarters (Chenopodium album)
Summary of the method: as §1

blackgrass [10] = assay: Test Example 5: herbicidal effect by foliage application, plastic box (Table 20, symbol J); format: in vivo, blackgrass (Alopecurus myosuroides); settings: foliage application, three weeks after application
Summary of the method: as §2

windgrass [11] = assay: Test Example 4: herbicidal effect by soil treatment (Table 19, symbol L); format: in vivo, windgrass (Apera spica-venti)
Summary of the method: as §1

Japanese bulrush = assay: Test Example 1: herbicidal activity, application before weed generation under submerged conditions (Table 16, symbol B); format: in vivo, Japanese bulrush (Schoenoplectus juncoides)
Summary of the method: (§4)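 Alluvial soil was flooded to 4 cm depth, weed seeds were sown mixed and 2.5-leaf rice seedlings were transplanted. On sowing day, the compound's emulsion, diluted in water to a set dose, was applied to the water surface. Plants grew at 25–30 °C and were scored 0–5 after three weeks.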

green foxtail [12] = assay: Test Example 5: herbicidal effect by foliage application, plastic box (Table 20, symbol G); format: in vivo, green foxtail (Setaria viridis); settings: foliage application, three weeks after application
Summary of the method: as §2

late watergrass = assay: Test Example 1: herbicidal activity, application before weed generation under submerged conditions (Table 16, symbol A); format: in vivo, late watergrass (Echinochloa oryzicola)
Summary of the method: as §4

Italian ryegrass [13] = assay: Test Example 5: herbicidal effect by foliage application, plastic box (Table 20, symbol K); format: in vivo, Italian ryegrass (Lolium multiflorum); settings: foliage application, three weeks after application
Summary of the method: as §2

wild oat [14] = assay: Test Example 4: herbicidal effect by soil treatment (Table 19, symbol I); format: in vivo, wild oat (Avena fatua)
Summary of the method: as §1

chickweed [15] = assay: Test Example 5: herbicidal effect by foliage application, plastic box (Table 20, symbol P); format: in vivo, common chickweed (Stellaria media); settings: foliage application, three weeks after application
Summary of the method: as §2

southern crabgrass [16] = assay: Test Example 4: herbicidal effect by soil treatment (Table 19, symbol F); format: in vivo, southern crabgrass (Digitaria ciliaris)
Summary of the method: as §1

barnyard grass [17] = assay: Test Example 3: herbicidal effect by foliage application, Wagner pot (Table 18, symbol H); format: in vivo, barnyard grass (Echinochloa crus-galli)
Summary of the method: as §3

redroot pigweed [18] = assay: Test Example 4: herbicidal effect by soil treatment (Table 19, symbol N); format: in vivo, redroot pigweed (Amaranthus retroflexus)
Summary of the method: as §1

barnyard grass [19] = assay: Test Example 5: herbicidal effect by foliage application, plastic box (Table 20, symbol H); format: in vivo, barnyard grass (Echinochloa crus-galli); settings: foliage application, three weeks after application
Summary of the method: as §2

barnyard grass [20] = assay: Test Example 4: herbicidal effect by soil treatment (Table 19, symbol H); format: in vivo, barnyard grass (Echinochloa crus-galli)
Summary of the method: as §1

chickweed [21] = assay: Test Example 4: herbicidal effect by soil treatment (Table 19, symbol P); format: in vivo, common chickweed (Stellaria media)
Summary of the method: as §1

windgrass [22] = assay: Test Example 5: herbicidal effect by foliage application, plastic box (Table 20, symbol L); format: in vivo, windgrass (Apera spica-venti); settings: foliage application, AAH 320 g/ha, three weeks after application
Summary of the method: as §2

oval-leafed pondweed = assay: Test Example 1: herbicidal activity, application before weed generation under submerged conditions (Table 16, symbol C); format: in vivo, oval-leafed pondweed (Monochoria vaginalis)
Summary of the method: as §4

wild oat [23] = assay: Test Example 5: herbicidal effect by foliage application, plastic box (Table 20, symbol I); format: in vivo, wild oat (Avena fatua); settings: foliage application, three weeks after application
Summary of the method: as §2

blackgrass [24] = assay: Test Example 4: herbicidal effect by soil treatment (Table 19, symbol J); format: in vivo, blackgrass (Alopecurus myosuroides)
Summary of the method: as §1

Italian ryegrass [25] = assay: Test Example 4: herbicidal effect by soil treatment (Table 19, symbol K); format: in vivo, Italian ryegrass (Lolium multiflorum)
Summary of the method: as §1

rice flat sedge = assay: Test Example 3: herbicidal effect by foliage application, Wagner pot (Table 18, symbol E); format: in vivo, rice flat sedge (Cyperus iria); settings: amount of applied herbicide 320 g/ha
Summary of the method: as §3

[26] = amount of applied herbicide 320 g/ha

Structure (SMILES): CC(=O)COc1ccc(-c2sc3ccccc3c2-c2c(O)c(C)nn(C)c2=O)cc1 [1-143]
- M: velvetleaf, herbicidal effect rating (velvetleaf [1]; AAH 320 g/ha): 4 (Herbicidal rate of 70% or more and less than 90%)
- R: persian speedwell, herbicidal effect rating (persian speedwell [2]; AAH 320 g/ha): 3 (Herbicidal rate of 40% or more and less than 70%)
- R: persian speedwell, herbicidal effect (persian speedwell [3]; AAH 320 g/ha): 5 (Herbicidal rate of 90% or more (almost completely withered))
- O: lambsquarters, herbicidal effect (lambsquarters [4]; AAH 320 g/ha): 4 (Herbicidal rate of 70% or more and less than 90%)
- M: velvetleaf, herbicidal effect (velvetleaf [5]; AAH 320 g/ha): 5 (Herbicidal rate of 90% or more (almost completely withered))
- herbicidal effect on D (Chinese sprangletop), rating 0-5 (Chinese sprangletop; 320 g/ha): 0 (Herbicidal rate of 5% or less (almost no effect))
- F: southern crabgrass, herbicidal effect (southern crabgrass [6]; AAH 320 g/ha): 3 (Herbicidal rate of 40% or more and less than 70%)
- N: redroot pigweed, herbicidal effect (redroot pigweed [7]; AAH 320 g/ha): 4 (Herbicidal rate of 70% or more and less than 90%)
- G: green foxtail, herbicidal effect rating (green foxtail [8]; AAH 320 g/ha): 4 (Herbicidal rate of 70% or more and less than 90%)
- O: lambsquarters, herbicidal effect rating (lambsquarters [9]; AAH 320 g/ha): 5 (Herbicidal rate of 90% or more (almost completely withered))
- J: blackgrass, herbicidal effect (blackgrass [10]; AAH 320 g/ha): 0 (Herbicidal rate of 5% or less (almost no effect))
- L: windgrass, herbicidal effect rating (windgrass [11]; AAH 320 g/ha): 0 (Herbicidal rate of 5% or less (almost no effect))
- Herbicidal effect on B: Japanese bulrush (grade 0-5) (Japanese bulrush; 320 g/ha applied herbicide): 0 (Herbicidal rate of 5% or less (almost no effect))
- G: green foxtail, herbicidal effect (green foxtail [12]; AAH 320 g/ha): 5 (Herbicidal rate of 90% or more (almost completely withered))
- Herbicidal effect on A: late watergrass (grade 0-5) (late watergrass; 320 g/ha applied herbicide): 3 (Herbicidal rate of 40% or more and less than 70%)
- K: Italian ryegrass, herbicidal effect (Italian ryegrass [13]; AAH 320 g/ha): 4 (Herbicidal rate of 70% or more and less than 90%)
- I: wild oat, herbicidal effect rating (wild oat [14]; AAH 320 g/ha): 0 (Herbicidal rate of 5% or less (almost no effect))
- P: chickweed, herbicidal effect (chickweed [15]; AAH 320 g/ha): 5 (Herbicidal rate of 90% or more (almost completely withered))
- F: southern crabgrass, herbicidal effect rating (southern crabgrass [16]; AAH 320 g/ha): 3 (Herbicidal rate of 40% or more and less than 70%)
- herbicidal effect on H (barnyard grass), rating 0-5 (barnyard grass [17]; 320 g/ha): 5 (Herbicidal rate of 90% or more (almost completely withered))
- N: redroot pigweed, herbicidal effect rating (redroot pigweed [18]; AAH 320 g/ha): 4 (Herbicidal rate of 70% or more and less than 90%)
- H: barnyard grass, herbicidal effect (barnyard grass [19]; AAH 320 g/ha): 4 (Herbicidal rate of 70% or more and less than 90%)
- H: barnyard grass, herbicidal effect rating (barnyard grass [20]; AAH 320 g/ha): 4 (Herbicidal rate of 70% or more and less than 90%)
- P: chickweed, herbicidal effect rating (chickweed [21]; AAH 320 g/ha): 0 (Herbicidal rate of 5% or less (almost no effect))
- L: windgrass, herbicidal effect (windgrass [22]): 4 (Herbicidal rate of 70% or more and less than 90%)
- Herbicidal effect on C: oval-leafed pondweed (grade 0-5) (oval-leafed pondweed; 320 g/ha applied herbicide): 0 (Herbicidal rate of 5% or less (almost no effect))
- I: wild oat, herbicidal effect (wild oat [23]; AAH 320 g/ha): 0 (Herbicidal rate of 5% or less (almost no effect))
- J: blackgrass, herbicidal effect rating (blackgrass [24]; AAH 320 g/ha): 0 (Herbicidal rate of 5% or less (almost no effect))
- K: Italian ryegrass, herbicidal effect rating (Italian ryegrass [25]; AAH 320 g/ha): 0 (Herbicidal rate of 5% or less (almost no effect))

Structure (SMILES): COCCn1nc(C)c(O)c(-c2c(-c3ccc(F)cc3)sc3ccc(F)cc23)c1=O [2-429]
- herbicidal effect, M: velvetleaf (velvetleaf [1]; [26]): 1 (Herbicidal rate of 5% or more and less than 20%)
- herbicidal effect, R: persian speedwell (persian speedwell [2]; [26]): 0 (Herbicidal rate of 5% or less (almost no effect))
- R: persian speedwell, herbicidal effect grade (persian speedwell [3]; 320 g/ha): 4 (Herbicidal rate of 70% or more and less than 90%)
- herbicidal effect on E: rice flat sedge (rice flat sedge): 0 (Herbicidal rate of 5% or less (almost no effect))
- O: lambsquarters, herbicidal effect grade (lambsquarters [4]; 320 g/ha): 0 (Herbicidal rate of 5% or less (almost no effect))
- M: velvetleaf, herbicidal effect grade (velvetleaf [5]; 320 g/ha): 2 (Herbicidal rate of 20% or more and less than 40%)
- herbicidal effect on D: Chinese sprangletop (Chinese sprangletop; [26]): 0 (Herbicidal rate of 5% or less (almost no effect))
- F: southern crabgrass, herbicidal effect grade (southern crabgrass [6]; 320 g/ha): 2 (Herbicidal rate of 20% or more and less than 40%)
- N: redroot pigweed, herbicidal effect grade (redroot pigweed [7]; 320 g/ha): 3 (Herbicidal rate of 40% or more and less than 70%)
- herbicidal effect, G: green foxtail (green foxtail [8]; [26]): 0 (Herbicidal rate of 5% or less (almost no effect))
- herbicidal effect, O: lambsquarters (lambsquarters [9]; [26]): 0 (Herbicidal rate of 5% or less (almost no effect))
- J: blackgrass, herbicidal effect grade (blackgrass [10]; 320 g/ha): 0 (Herbicidal rate of 5% or less (almost no effect))
- herbicidal effect, L: windgrass (windgrass [11]; [26]): 0 (Herbicidal rate of 5% or less (almost no effect))
- Herbicidal effect, B: Japanese bulrush (Japanese bulrush; [26]): 2 (Herbicidal rate of 20% or more and less than 40%)
- G: green foxtail, herbicidal effect grade (green foxtail [12]; 320 g/ha): 0 (Herbicidal rate of 5% or less (almost no effect))
- Herbicidal effect, A: late watergrass (late watergrass; [26]): 3 (Herbicidal rate of 40% or more and less than 70%)
- K: Italian ryegrass, herbicidal effect grade (Italian ryegrass [13]; 320 g/ha): 0 (Herbicidal rate of 5% or less (almost no effect))
- herbicidal effect, I: wild oat (wild oat [14]; [26]): 0 (Herbicidal rate of 5% or less (almost no effect))
- P: chickweed, herbicidal effect grade (chickweed [15]; 320 g/ha): 5 (Herbicidal rate of 90% or more (almost completely withered))
- herbicidal effect, F: southern crabgrass (southern crabgrass [16]; [26]): 0 (Herbicidal rate of 5% or less (almost no effect))
- herbicidal effect on H: barnyard grass (barnyard grass [17]; [26]): 3 (Herbicidal rate of 40% or more and less than 70%)
- herbicidal effect, N: redroot pigweed (redroot pigweed [18]; [26]): 3 (Herbicidal rate of 40% or more and less than 70%)
- H: barnyard grass, herbicidal effect grade (barnyard grass [19]; 320 g/ha): 0 (Herbicidal rate of 5% or less (almost no effect))
- herbicidal effect, H: barnyard grass (barnyard grass [20]; [26]): 0 (Herbicidal rate of 5% or less (almost no effect))
- herbicidal effect, P: chickweed (chickweed [21]; [26]): 0 (Herbicidal rate of 5% or less (almost no effect))
- Herbicidal effect, C: oval-leafed pondweed (oval-leafed pondweed; [26]): 3 (Herbicidal rate of 40% or more and less than 70%)
- I: wild oat, herbicidal effect grade (wild oat [23]; 320 g/ha): 0 (Herbicidal rate of 5% or less (almost no effect))
- herbicidal effect, J: blackgrass (blackgrass [24]; [26]): 0 (Herbicidal rate of 5% or less (almost no effect))
- herbicidal effect, K: Italian ryegrass (Italian ryegrass [25]; [26]): 0 (Herbicidal rate of 5% or less (almost no effect))

Reference: US20230085307A1, “PYRIDAZINONE COMPOUND AND HERBICIDE” (NISSAN CHEMICAL CORPORATION, priority 2019, published 2023)
